According to patent CN108947977A, “3r-吲哚甲基-6r-酰胺侧链氨基酸修饰的哌嗪-2,5-二酮，其合成，活性和应用” (Capital Medical University, priority 2017, dated 2018):

What was measured:
Lewis小鼠肺癌细胞(LLC) = test: Anti-metastasis activity: Lewis lung carcinoma (LLC) implanted in C57BL/6 mice, lung metastasis nodules counted; type: in vivo, C57BL/6小鼠; conditions: oral, 0.5μmol/kg/天; for Inhibition of tumour lung metastasis (result in words): 12 days, LLC-bearing C57BL/6 mice; for Anti-metastasis activity compared with RGDS (20μmol/kg/天) and compound 8 (5μmol/kg/天): RGDS dose 40-fold higher, compound 8 dose 10-fold higher
S180 = test: Anti-tumour growth activity in S180 tumour-bearing mice (tumour weight); type: in vivo, ICR小鼠; conditions: oral, 0.5μmol/kg/天; for Inhibition of tumour growth (result in words): 12 days, S180 mice; for Anti-tumour growth activity compared with compound 8 (5μmol/kg/天): compound 8 dose 10-fold higher
二甲苯引起的小鼠耳肿胀 = test: Anti-inflammatory activity: xylene-induced mouse ear swelling; type: in vivo, ICR小鼠; conditions: oral, 0.5μmol/kg; for Inhibition of xylene-induced mouse ear swelling (result in words): xylene 30 min after dosing, ears taken 2 h later; for Anti-inflammatory activity compared with compound 8 (5μmol/kg): compound 8 dose 10-fold higher

| SMILES | Inhibition of tumour lung metastasis (result in words) (Lewis小鼠肺癌细胞(LLC)) | Anti-metastasis activity compared with RGDS (20μmol/kg/天) and compound 8 (5μmol/kg/天) (Lewis小鼠肺癌细胞(LLC)) | Inhibition of tumour growth (result in words) (S180) | Anti-tumour growth activity compared with compound 8 (5μmol/kg/天) (S180) | Inhibition of xylene-induced mouse ear swelling (result in words) (二甲苯引起的小鼠耳肿胀) | Anti-inflammatory activity compared with compound 8 (5μmol/kg) (二甲苯引起的小鼠耳肿胀) |
| --- | --- | --- | --- | --- | --- | --- |
| NC(=O)C[C@H](N)C(=O)NCCCCCC(=O)NCCCC[C@H]1NC(=O)[C@@H](Cc2c[nH]c3ccccc23)NC1=O [化合物6b, (3R,6R)-3-(Asn-氨基正己酰基氨基正丁基)-6-(吲哚-3-甲基)-哌嗪-2,5-二酮] | 有效地抑制肿瘤肺转移 | 没有显著性差异 | 有效地抑制肿瘤生长 | 没有显著性差异 | 有效地抑制二甲苯引起的小鼠耳肿胀 | 没有显著性差异 |
| NC(=O)CC[C@H](N)C(=O)NCCCCCC(=O)NCCCC[C@H]1NC(=O)[C@@H](Cc2c[nH]c3ccccc23)NC1=O [化合物6a, (3R,6R)-3-(Gln-氨基正己酰基氨基正丁基)-6-(吲哚-3-甲基)-哌嗪-2,5-二酮] | 有效地抑制肿瘤肺转移 | 没有显著性差异 | 有效地抑制肿瘤生长 | 没有显著性差异 | 有效地抑制二甲苯引起的小鼠耳肿胀 | 没有显著性差异 |
